In ChEMBL document CHEMBL3885861, “Open TG-GATES”:

Organism: Rattus norvegicus
Experiment: Open TG-GATES - Regimen: Daily Repeat
Type: toxicity, organism-based, Sprague-Dawley
Set-up: regimen Daily Repeat, gender Male, age 6 weeks
Conditions: in vivo, po, 300 mg/kg, route gavage, dose level Middle; for APTT / Bas / Eos / Fbg / Hb / Ht / Lym / MCH / MCHC / MCV / Mono / Neu / PT / Plat / RBC / Ret / WBC: tissue Blood; for KIDNEY_L / KIDNEY_R / KIDNEY_TOTAL: tissue Kidney; for LIVER: tissue Liver; for A/G / ALP / ALT / AST / BUN / CRE / Ca / Cl / DBIL / GLC / IP / K / LDH / Na / PL / RALB / TBIL / TC / TG / TP / gamma-GTP: tissue Plasma

In the case of `COc1ccc(Cl)cc1C(=O)NCCc1ccc(S(=O)(=O)NC(=O)NC2CCCCC2)cc1` [GLYBURIDE], the TERMINAL_BW (72 h, time 3 day) is reported as 227.7 g, the APTT (72 h, time 3 day) is reported as 19.4 s and the Bas (72 h, time 3 day) is reported as 0%. For the same compound, the Eos (72 h, time 3 day) was 1%, the Fbg (72 h, time 3 day) was 222.4 mg/dL and the Hb (72 h, time 3 day) was 13.3 g/dL. For the same compound, the Ht (72 h, time 3 day) was 39.4%, the Lym (72 h, time 3 day) was 79.6% and the MCH (72 h, time 3 day) was 21.3 pg. It also gave an MCHC (72 h, time 3 day) of 33.7%, an MCV (72 h, time 3 day) of 63.2 fL and a Mono (72 h, time 3 day) of 2.8%. For the same compound, the Neu (72 h, time 3 day) was 16.4%, the PT (72 h, time 3 day) was 12.4 s and the Plat (72 h, time 3 day) was 120.5 x10_4/uL. The RBC (72 h, time 3 day) was 624 x10_4/ul, the Ret (72 h, time 3 day) was 5.4% and the WBC (72 h, time 3 day) was 97.9 x10_2/uL. The KIDNEY_L (72 h, time 3 day) was 1 g, the KIDNEY_R (72 h, time 3 day) was 1 g and the KIDNEY_TOTAL (72 h, time 3 day) was 2.1 g. It also gave an LIVER (72 h, time 3 day) of 10.5 g, an A/G (72 h, time 3 day) of 1.5 and an ALP (72 h, time 3 day) of 912.2 IU/L. It also gave an ALT (72 h, time 3 day) of 40.4 IU/L, an AST (72 h, time 3 day) of 65.4 IU/L and a BUN (72 h, time 3 day) of 14.2 mg/dL. It also gave a CRE (72 h, time 3 day) of 0.4 mg/dL, a Ca (72 h, time 3 day) of 10.7 mg/dL and a Cl (72 h, time 3 day) of 103 meq/L. For the same compound, the DBIL (72 h, time 3 day) was 0.088 mg/dL, the GLC (72 h, time 3 day) was 194.6 mg/dL and the IP (72 h, time 3 day) was 7.1 mg/dL. For the same compound, the K (72 h, time 3 day) was 3.8 meq/L, the LDH (72 h, time 3 day) was 190.4 IU/L and the Na (72 h, time 3 day) was 140.6 meq/L. It also gave a PL (72 h, time 3 day) of 135.6 mg/dL, an RALB (72 h, time 3 day) of 3.3 g/dL and a TBIL (72 h, time 3 day) of 0.1 mg/dL. For the same compound, the TC (72 h, time 3 day) was 72 mg/dL, the TG (72 h, time 3 day) was 71.4 mg/dL and the TP (72 h, time 3 day) was 5.4 g/dL. For the same compound, the gamma-GTP (72 h, time 3 day) was 0.6 IU/L, the TERMINAL_BW ([…], time 7 day) was 262.8 g and the TERMINAL_BW ([…], time 14 day) was 322.5 g. The TERMINAL_BW ([…], time 28 day) was 400.8 g, the APTT ([…], time 7 day) was 20.6 s and the Bas ([…], time 7 day) was 0%. For the same compound, the Eos ([…], time 7 day) was 1%, the Fbg ([…], time 7 day) was 220.6 mg/dL and the Hb ([…], time 7 day) was 13.6 g/dL. For the same compound, the Ht ([…], time 7 day) was 40%, the Lym ([…], time 7 day) was 78.4% and the MCH ([…], time 7 day) was 20.6 pg. The MCHC ([…], time 7 day) was 34%, the MCV ([…], time 7 day) was 60.5 fL and the Mono ([…], time 7 day) was 2.4%. It also gave a Neu ([…], time 7 day) of 17.8%, a PT ([…], time 7 day) of 12.5 s and a Plat ([…], time 7 day) of 128.7 x10_4/uL. It also gave an RBC ([…], time 7 day) of 661.2 x10_4/ul, a Ret ([…], time 7 day) of 5.2% and a WBC ([…], time 7 day) of 99.5 x10_2/uL. The APTT ([…], time 14 day) was 21.4 s, the Bas ([…], time 14 day) was 0% and the Eos ([…], time 14 day) was 1%. It also gave a Fbg ([…], time 14 day) of 226.6 mg/dL, a Hb ([…], time 14 day) of 14.1 g/dL and a Ht ([…], time 14 day) of 41.1%. The Lym ([…], time 14 day) was 81.2%, the MCH ([…], time 14 day) was 20.5 pg and the MCHC ([…], time 14 day) was 34.4%. For the same compound, the MCV ([…], time 14 day) was 59.6 fL, the Mono ([…], time 14 day) was 3.2% and the Neu ([…], time 14 day) was 13.8%. For the same compound, the PT ([…], time 14 day) was 12.3 s, the Plat ([…], time 14 day) was 124.7 x10_4/uL and the RBC ([…], time 14 day) was 689.4 x10_4/ul. It also gave a Ret ([…], time 14 day) of 4.5%, a WBC ([…], time 14 day) of 105.4 x10_2/uL and an APTT ([…], time 28 day) of 21.1 s. It also gave a Bas ([…], time 28 day) of 0%, an Eos ([…], time 28 day) of 1% and a Fbg ([…], time 28 day) of 217.4 mg/dL. The Hb ([…], time 28 day) was 15 g/dL, the Ht ([…], time 28 day) was 42.8% and the Lym ([…], time 28 day) was 81.6%. The MCH ([…], time 28 day) was 19.6 pg, the MCHC ([…], time 28 day) was 34.9% and the MCV ([…], time 28 day) was 56.1 fL. For the same compound, the Mono ([…], time 28 day) was 2.2%, the Neu ([…], time 28 day) was 14.8% and the PT ([…], time 28 day) was 12.5 s. It also gave a Plat ([…], time 28 day) of 110.1 x10_4/uL, an RBC ([…], time 28 day) of 762.8 x10_4/ul and a Ret ([…], time 28 day) of 2.6%. For the same compound, the WBC ([…], time 28 day) was 109.6 x10_2/uL, the KIDNEY_L ([…], time 7 day) was 1.1 g and the KIDNEY_R ([…], time 7 day) was 1.1 g. The KIDNEY_TOTAL ([…], time 7 day) was 2.2 g, the KIDNEY_L ([…], time 14 day) was 1.2 g and the KIDNEY_R ([…], time 14 day) was 1.2 g. The KIDNEY_TOTAL ([…], time 14 day) was 2.5 g, the KIDNEY_L ([…], time 28 day) was 1.4 g and the KIDNEY_R ([…], time 28 day) was 1.3 g. It also gave a KIDNEY_TOTAL ([…], time 28 day) of 2.7 g, an LIVER ([…], time 7 day) of 12.1 g and an LIVER ([…], time 14 day) of 14 g. The LIVER ([…], time 28 day) was 16.8 g, the A/G ([…], time 7 day) was 1.5 and the ALP ([…], time 7 day) was 861.6 IU/L. For the same compound, the ALT ([…], time 7 day) was 33.4 IU/L, the AST ([…], time 7 day) was 59.2 IU/L and the BUN ([…], time 7 day) was 14.6 mg/dL. It also gave a CRE ([…], time 7 day) of 0.4 mg/dL, a Ca ([…], time 7 day) of 10.8 mg/dL and a Cl ([…], time 7 day) of 102.4 meq/L. For the same compound, the DBIL ([…], time 7 day) was 0.084 mg/dL, the GLC ([…], time 7 day) was 195.6 mg/dL and the IP ([…], time 7 day) was 6.8 mg/dL. For the same compound, the K ([…], time 7 day) was 3.8 meq/L, the LDH ([…], time 7 day) was 163.8 IU/L and the Na ([…], time 7 day) was 140.6 meq/L. It also gave a PL ([…], time 7 day) of 140.6 mg/dL, an RALB ([…], time 7 day) of 3.3 g/dL and a TBIL ([…], time 7 day) of 0.1 mg/dL. The TC ([…], time 7 day) was 67.8 mg/dL, the TG ([…], time 7 day) was 87.6 mg/dL and the TP ([…], time 7 day) was 5.6 g/dL. The gamma-GTP ([…], time 7 day) was 1.2 IU/L, the A/G ([…], time 14 day) was 1.4 and the ALP ([…], time 14 day) was 818.6 IU/L. The ALT ([…], time 14 day) was 40 IU/L, the AST ([…], time 14 day) was 64.2 IU/L and the BUN ([…], time 14 day) was 15.8 mg/dL. For the same compound, the CRE ([…], time 14 day) was 0.5 mg/dL, the Ca ([…], time 14 day) was 10.7 mg/dL and the Cl ([…], time 14 day) was 102.4 meq/L. For the same compound, the DBIL ([…], time 14 day) was 0.1 mg/dL, the GLC ([…], time 14 day) was 178 mg/dL and the IP ([…], time 14 day) was 6.8 mg/dL. The K ([…], time 14 day) was 4 meq/L, the LDH ([…], time 14 day) was 162.8 IU/L and the Na ([…], time 14 day) was 140.4 meq/L. For the same compound, the PL ([…], time 14 day) was 166.8 mg/dL, the RALB ([…], time 14 day) was 3.5 g/dL and the TBIL ([…], time 14 day) was 0.2 mg/dL. For the same compound, the TC ([…], time 14 day) was 80.8 mg/dL, the TG ([…], time 14 day) was 125 mg/dL and the TP ([…], time 14 day) was 6 g/dL. The gamma-GTP ([…], time 14 day) was 1.6 IU/L, the A/G ([…], time 28 day) was 1.3 and the ALP ([…], time 28 day) was 681.2 IU/L. It also gave an ALT ([…], time 28 day) of 35.4 IU/L, an AST ([…], time 28 day) of 62.2 IU/L and a BUN ([…], time 28 day) of 15.4 mg/dL. For the same compound, the CRE ([…], time 28 day) was 0.5 mg/dL, the Ca ([…], time 28 day) was 10.5 mg/dL and the Cl ([…], time 28 day) was 104.4 meq/L. The DBIL ([…], time 28 day) was 0.1 mg/dL, the GLC ([…], time 28 day) was 213 mg/dL and the IP ([…], time 28 day) was 6.2 mg/dL. The K ([…], time 28 day) was 3.7 meq/L, the LDH ([…], time 28 day) was 150.8 IU/L and the Na ([…], time 28 day) was 142 meq/L. For the same compound, the PL ([…], time 28 day) was 140.6 mg/dL, the RALB ([…], time 28 day) was 3.4 g/dL and the TBIL ([…], time 28 day) was 0.2 mg/dL. The TC ([…], time 28 day) was 67.2 mg/dL, the TG ([…], time 28 day) was 114.4 mg/dL and the TP ([…], time 28 day) was 5.9 g/dL. It also gave a gamma-GTP ([…], time 28 day) of 0.6 IU/L.
